Test results published in patent US20080063668A1, “Nitroimidazole and terconazole composition and method” (priority 2006, published 2008).

What was measured:
[1] = system: Gardnerella vaginalis ATCC 14019; assay: Inhibition of bacteria growth, drug dilution tubes, anaerobic; format: cell-based; design: key to growth: (+) for growth; (−) for no growth; (±) for suboptimal growth after an initial observation of growth
Method: (§1) Serial dilutions of tinidazole and terconazole were prepared by adding measured amounts of each substance to water (both individually and in combination). Seven bacterial organisms that are common pathogens in bacterial vaginosis were grown anaerobically in the medium as listed in Table 4 under a N2/H2/CO2 (85:5:10) head space atmosphere. [table] These cultures were diluted to a 0.5 McFarland standard prior to inoculation of drug dilution tubes. One (1) mL of the 0.5 McFarland preparation was inoculated to an anaerobically prepared test tube containing 0.8 mL of Difco anaerobic medium (DAMM) and 0.2 mL of appropriate diluted antimicrobial or antimicrobial combination for a total of 2 mL. The inoculated tubes were then incubated at 37° C. and monitored daily for growth. Growth was scored with a (+) for growth, (−) for no growth, and (±) for suboptimal growth after an initial observation of growth. Tinidazole is abbreviated as TNZ and terconazole is abbreviated as TER in Tables 5 through 11.

Atopobium vaginae BAA-55 = assay: as above; format: cell-based; design: key to growth: (+) for growth; (−) for no growth; (±) for suboptimal growth after an initial observation of growth
Method: as §1

[2] = neutral pH; cited from earlier work
[3] = system: Mobiluncus curtisii var. holmesii ATCC 35242; assay: Inhibition of bacteria growth, drug dilution tubes, anaerobic; format: cell-based; design: key: (+) for growth; (−) for no growth; (±) for suboptimal growth after an initial observation of growth

For `CCS(=O)(=O)CCn1c([N+](=O)[O-])cnc1C` [TNZ, 1-[2-(ethylsulfonyl)ethyl]-2-methyl-5-nitroimidazole], the growth ([1]; TNZ 2 μg/ml, DAY 1) was “(+)”, the growth ([1]; TNZ 2 μg/ml, DAY 2) was “(+)” and the growth ([1]; TNZ 2 μg/ml, DAY 3) was “(+)”. For the same molecule, the growth ([1]; TNZ 2 μg/ml, DAY 4) was “(+)”, the growth ([1]; TNZ 2 μg/ml, DAY 5) was “(+)” and the growth ([1]; TNZ 3.9 μg/ml, DAY 1) was “(+)”. For the same molecule, the growth ([1]; TNZ 3.9 μg/ml, DAY 2) was “(+)”, the growth ([1]; TNZ 3.9 μg/ml, DAY 3) was “(+)” and the growth ([1]; TNZ 3.9 μg/ml, DAY 4) was “(+)”. The growth ([1]; TNZ 3.9 μg/ml, DAY 5) was “(+)”, the growth ([1]; TNZ 7.8 μg/ml, DAY 1) was “(+)” and the growth ([1]; TNZ 7.8 μg/ml, DAY 2) was “(+)”. The growth ([1]; TNZ 7.8 μg/ml, DAY 3) was “(+)”, the growth ([1]; TNZ 7.8 μg/ml, DAY 4) was “(+)” and the growth ([1]; TNZ 7.8 μg/ml, DAY 5) was “(+)”. The growth ([1]; TNZ 15.6 μg/ml, DAY 1) was “(+)”, the growth ([1]; TNZ 15.6 μg/ml, DAY 2) was “(+)” and the growth ([1]; TNZ 15.6 μg/ml, DAY 3) was “(+)”. For the same molecule, the growth ([1]; TNZ 15.6 μg/ml, DAY 4) was “(+)”, the growth ([1]; TNZ 15.6 μg/ml, DAY 5) was “(+)” and the growth ([1]; TNZ 31.3 μg/ml, DAY 1) was “(+)”. For the same molecule, the growth ([1]; TNZ 31.3 μg/ml, DAY 2) was “(+)”, the growth ([1]; TNZ 31.3 μg/ml, DAY 3) was “(+)” and the growth ([1]; TNZ 31.3 μg/ml, DAY 4) was “(+)”. The growth ([1]; TNZ 31.3 μg/ml, DAY 5) was “(+)”, the growth ([1]; TNZ 62.5 μg/ml, DAY 1) was “(+)” and the growth ([1]; TNZ 62.5 μg/ml, DAY 2) was “(+)”. The growth ([1]; TNZ 62.5 μg/ml, DAY 3) was “(+)”, the growth ([1]; TNZ 62.5 μg/ml, DAY 4) was “(+)” and the growth ([1]; TNZ 62.5 μg/ml, DAY 5) was “(+)”. For the same molecule, the growth ([1]; TNZ 125 μg/ml, DAY 1) was “(+)”, the growth ([1]; TNZ 125 μg/ml, DAY 2) was “(+)” and the growth ([1]; TNZ 125 μg/ml, DAY 3) was “(+)”. For the same molecule, the growth ([1]; TNZ 125 μg/ml, DAY 4) was “(+)”, the growth ([1]; TNZ 125 μg/ml, DAY 5) was “(+)” and the growth ([1]; TNZ 250 μg/ml, DAY 1) was “(+)”. The growth ([1]; TNZ 250 μg/ml, DAY 2) was “(+)”, the growth ([1]; TNZ 250 μg/ml, DAY 3) was “(+)” and the growth ([1]; TNZ 250 μg/ml, DAY 4) was “(+)”. The growth ([1]; TNZ 250 μg/ml, DAY 5) was “(+)”, the growth ([1]; TNZ 500 μg/ml, DAY 1) was “(+)” and the growth ([1]; TNZ 500 μg/ml, DAY 2) was “(+)”. The growth ([1]; TNZ 500 μg/ml, DAY 3) was “(+)”, the growth ([1]; TNZ 500 μg/ml, DAY 4) was “(+)” and the growth ([1]; TNZ 500 μg/ml, DAY 5) was “(+)”. For the same molecule, the growth (Atopobium vaginae BAA-55; TNZ 2 μg/ml, DAY 1) was “(+)”, the growth (Atopobium vaginae BAA-55; TNZ 2 μg/ml, DAY 2) was “(+)” and the growth (Atopobium vaginae BAA-55; TNZ 2 μg/ml, DAY 3) was “(+)”. The growth (Atopobium vaginae BAA-55; TNZ 2 μg/ml, DAY 4) was “(+)”, the growth (Atopobium vaginae BAA-55; TNZ 2 μg/ml, DAY 5) was “(+)” and the growth (Atopobium vaginae BAA-55; TNZ 3.9 μg/ml, DAY 1) was “(+)”. The growth (Atopobium vaginae BAA-55; TNZ 3.9 μg/ml, DAY 2) was “(+)”, the growth (Atopobium vaginae BAA-55; TNZ 3.9 μg/ml, DAY 3) was “(+)” and the growth (Atopobium vaginae BAA-55; TNZ 3.9 μg/ml, DAY 4) was “(+)”. The growth (Atopobium vaginae BAA-55; TNZ 3.9 μg/ml, DAY 5) was “(+)”, the growth (Atopobium vaginae BAA-55; TNZ 7.8 μg/ml, DAY 1) was “(+)” and the growth (Atopobium vaginae BAA-55; TNZ 7.8 μg/ml, DAY 2) was “(+)”. For the same molecule, the growth (Atopobium vaginae BAA-55; TNZ 7.8 μg/ml, DAY 3) was “(+)”, the growth (Atopobium vaginae BAA-55; TNZ 7.8 μg/ml, DAY 4) was “(+)” and the growth (Atopobium vaginae BAA-55; TNZ 7.8 μg/ml, DAY 5) was “(+)”. For the same molecule, the growth (Atopobium vaginae BAA-55; TNZ 15.6 μg/ml, DAY 1) was “(−)”, the growth (Atopobium vaginae BAA-55; TNZ 15.6 μg/ml, DAY 2) was “(+)” and the growth (Atopobium vaginae BAA-55; TNZ 15.6 μg/ml, DAY 3) was “(+)”. The growth (Atopobium vaginae BAA-55; TNZ 15.6 μg/ml, DAY 4) was “(+)”, the growth (Atopobium vaginae BAA-55; TNZ 15.6 μg/ml, DAY 5) was “(+)” and the growth (Atopobium vaginae BAA-55; TNZ 31.3 μg/ml, DAY 1) was “(−)”. The growth (Atopobium vaginae BAA-55; TNZ 31.3 μg/ml, DAY 2) was “(+)”, the growth (Atopobium vaginae BAA-55; TNZ 31.3 μg/ml, DAY 3) was “(+)” and the growth (Atopobium vaginae BAA-55; TNZ 31.3 μg/ml, DAY 4) was “(+)”. For the same molecule, the growth (Atopobium vaginae BAA-55; TNZ 31.3 μg/ml, DAY 5) was “(+)”, the growth (Atopobium vaginae BAA-55; TNZ 62.5 μg/ml, DAY 1) was “(−)” and the growth (Atopobium vaginae BAA-55; TNZ 62.5 μg/ml, DAY 2) was “(+)”. For the same molecule, the growth (Atopobium vaginae BAA-55; TNZ 62.5 μg/ml, DAY 3) was “(+)”, the growth (Atopobium vaginae BAA-55; TNZ 62.5 μg/ml, DAY 4) was “(+)” and the growth (Atopobium vaginae BAA-55; TNZ 62.5 μg/ml, DAY 5) was “(+)”. The growth (Atopobium vaginae BAA-55; TNZ 125 μg/ml, DAY 1) was “(−)”, the growth (Atopobium vaginae BAA-55; TNZ 125 μg/ml, DAY 2) was “(+)” and the growth (Atopobium vaginae BAA-55; TNZ 125 μg/ml, DAY 3) was “(+)”. The growth (Atopobium vaginae BAA-55; TNZ 125 μg/ml, DAY 4) was “(+)”, the growth (Atopobium vaginae BAA-55; TNZ 125 μg/ml, DAY 5) was “(+)” and the growth (Atopobium vaginae BAA-55; TNZ 250 μg/ml, DAY 1) was “(−)”. For the same molecule, the growth (Atopobium vaginae BAA-55; TNZ 250 μg/ml, DAY 2) was “(+)”, the growth (Atopobium vaginae BAA-55; TNZ 250 μg/ml, DAY 3) was “(+)” and the growth (Atopobium vaginae BAA-55; TNZ 250 μg/ml, DAY 4) was “(+)”. For the same molecule, the growth (Atopobium vaginae BAA-55; TNZ 250 μg/ml, DAY 5) was “(+)”, the growth (Atopobium vaginae BAA-55; TNZ 500 μg/ml, DAY 1) was “(−)” and the growth (Atopobium vaginae BAA-55; TNZ 500 μg/ml, DAY 2) was “(−)”. The growth (Atopobium vaginae BAA-55; TNZ 500 μg/ml, DAY 3) was “(+)”, the growth (Atopobium vaginae BAA-55; TNZ 500 μg/ml, DAY 4) was “(+)” and the growth (Atopobium vaginae BAA-55; TNZ 500 μg/ml, DAY 5) was “(+)”. For the same molecule, the solubility in water [2] was “about 0.45 percent by weight”, the growth ([3]; TNZ 2 μg/ml, DAY 1) was “(+)” and the growth ([3]; TNZ 2 μg/ml, DAY 2) was “(+)”. The growth ([3]; TNZ 2 μg/ml, DAY 3) was “(+)”, the growth ([3]; TNZ 2 μg/ml, DAY 4) was “(+)” and the growth ([3]; TNZ 2 μg/ml, DAY 5) was “(+)”. The growth ([3]; TNZ 3.9 μg/ml, DAY 1) was “(+)”, the growth ([3]; TNZ 3.9 μg/ml, DAY 2) was “(+)” and the growth ([3]; TNZ 3.9 μg/ml, DAY 3) was “(+)”. The growth ([3]; TNZ 3.9 μg/ml, DAY 4) was “(+)”, the growth ([3]; TNZ 3.9 μg/ml, DAY 5) was “(+)” and the growth ([3]; TNZ 7.8 μg/ml, DAY 1) was “(+)”. The growth ([3]; TNZ 7.8 μg/ml, DAY 2) was “(+)”, the growth ([3]; TNZ 7.8 μg/ml, DAY 3) was “(+)” and the growth ([3]; TNZ 7.8 μg/ml, DAY 4) was “(+)”. The growth ([3]; TNZ 7.8 μg/ml, DAY 5) was “(+)”, the growth ([3]; TNZ 15.6 μg/ml, DAY 1) was “(+)” and the growth ([3]; TNZ 15.6 μg/ml, DAY 2) was “(+)”. The growth ([3]; TNZ 15.6 μg/ml, DAY 3) was “(+)”, the growth ([3]; TNZ 15.6 μg/ml, DAY 4) was “(+)” and the growth ([3]; TNZ 15.6 μg/ml, DAY 5) was “(+)”. For the same molecule, the growth ([3]; TNZ 31.3 μg/ml, DAY 1) was “(+)”, the growth ([3]; TNZ 31.3 μg/ml, DAY 2) was “(+)” and the growth ([3]; TNZ 31.3 μg/ml, DAY 3) was “(+)”. For the same molecule, the growth ([3]; TNZ 31.3 μg/ml, DAY 4) was “(+)”, the growth ([3]; TNZ 31.3 μg/ml, DAY 5) was “(+)” and the growth ([3]; TNZ 62.5 μg/ml, DAY 1) was “(+)”. The growth ([3]; TNZ 62.5 μg/ml, DAY 2) was “(+)”, the growth ([3]; TNZ 62.5 μg/ml, DAY 3) was “(+)” and the growth ([3]; TNZ 62.5 μg/ml, DAY 4) was “(+)”. The growth ([3]; TNZ 62.5 μg/ml, DAY 5) was “(+)”, the growth ([3]; TNZ 125 μg/ml, DAY 1) was “(+)” and the growth ([3]; TNZ 125 μg/ml, DAY 2) was “(+)”. The growth ([3]; TNZ 125 μg/ml, DAY 3) was “(+)”, the growth ([3]; TNZ 125 μg/ml, DAY 4) was “(+)” and the growth ([3]; TNZ 125 μg/ml, DAY 5) was “(+)”. For the same molecule, the growth ([3]; TNZ 250 μg/ml, DAY 1) was “(+)”, the growth ([3]; TNZ 250 μg/ml, DAY 2) was “(+)” and the growth ([3]; TNZ 250 μg/ml, DAY 3) was “(+)”. For the same molecule, the growth ([3]; TNZ 250 μg/ml, DAY 4) was “(+)”, the growth ([3]; TNZ 250 μg/ml, DAY 5) was “(+)” and the growth ([3]; TNZ 500 μg/ml, DAY 1) was “(+)”. The growth ([3]; TNZ 500 μg/ml, DAY 2) was “(+)”, the growth ([3]; TNZ 500 μg/ml, DAY 3) was “(+)” and the growth ([3]; TNZ 500 μg/ml, DAY 4) was “(+)”. For the same molecule, the growth ([3]; TNZ 500 μg/ml, DAY 5) was “(+)”.
